Measured values as given in patent US8273794B2, “Compounds and compositions for delivering active agents” (Emisphere Technologies, Inc., priority 2004, dated 2012).
Values joined by “and” are separate entries in the source; they are usually repeats but may differ in a detail not shown here. Equal entries are not always repeated. Blank lines part the entries; values can stand above or below the compound they belong to.

What was measured:
[1] = Human recombinant insulin oral delivery in rats, whole blood glucose; type: in vivo, Sprague-Dawley rats; conditions: oral (liquid dose), delivery agent compound dose 200 mg/kg, insulin dose 0.5 mg/kg
Protocol: (§1) Insulin (human recombinant) was obtained from ICN Biomedicals (Aurora, Ohio) as a bulk powder. To prepare stock solutions, insulin was dissolved in deionized water (pH˜6.5) to obtain a concentration of 15 mg/ml. Stock solutions were kept frozen at −20° C. in 1.0-ml aliquots until used. For dosing solutions, the delivery agent compound was dissolved in deionized water to obtain a final concentration of 200 mg/ml. The free acid form of delivery agent was converted to the sodium salt by adding one equivalent of sodium hydroxide. Solutions were vortexed, sonicated, and heated, and if necessary, additional sodium hydroxide was added in μl quantities to achieve uniform solubility. Solutions were adjusted to a pH of 3.5-8.5 by the addition of either hydrochloric acid or sodium hydroxide. Insulin stock (typically 66.7 μl) was then added to the delivery agent solution to obtain a final concentration of 0.5 mg/ml. After solubilization and drug addition, solutions were brought to final volume by the addition of deionized water.
(§2) Insulin was administered to male, Sprague-Dawley rats either alone or in combination with an Emisphere delivery agent by oral gavage (PO). Typically, rats were fasted for 18-24 hours prior to dosing. For dosing, a Rusch 8 French catheter was cut to 11 cm in length and adapted to fit a 1-ml syringe. The syringe was filled with dosing solution and the catheter was wiped dry of excess solution. The catheter was inserted into the rat mouth and fed down the esophagus (10.0 cm). The dosing solution was delivered by pressing the syringe plunger while holding the rat in an upright position.
In order to determine the pharmacodynamic response, a hand-held glucometer (OneTouch Ultra, LifeScan® (Johnson & Johnson, New Brunswick, N.J.)) was used to measure whole blood glucose after administration of insulin or insulin and delivery agent. Samples were collected either from the retroorbital sinus (see Sample collection and handling: Insulin) or from the tail artery (i.e. tail clip). For tail clipping, the tip of the tail was severed approximately 5 mm from the tip using a scalpel blade. After discarding the first drop of blood, a small sample (˜5-10 μl) was touched to the glucometer test strip (OneTouch Ultra, LifeScan) and a blood glucose reading was generated by the meter. For each subsequent sampling time point, the clot formed at the tip of the tail was broken up and a fresh sample was collected. Typically, samples were collected prior to dosing (time 0) and at 15, 30, 45, and 60 minutes after dosing.

[2] = Oral and intracolonic heparin delivery in rats, APTT; type: in vivo, Sprague-Dawley rats
Protocol: (§3) Oral gavage (PO) and/or intracolonic (IC) dosing solutions containing a delivery agent compound and heparin sodium USP in 25% aqueous propylene glycol were prepared. The sodium salt of the compound was used. Typically, delivery agent compound and heparin (about 166-182 IU/mg) were mixed by vortex as dry powders. This dry mixture was dissolved in 25% v/v aqueous propylene glycol, vortexed and placed in a sonicator (about 37° C.). The pH was adjusted to about 7 (6.5 to 8.5) with aqueous NaOH (2N). The dosing solution was sonicated to produce a clear solution. The final volume was adjusted to 3.0 mL. The final delivery agent compound dose, heparin dose and volume dose amounts are listed below in Table 6.
(§4) The typical dosing and sampling protocols were as follows. Male Sprague-Dawley rats weighing between 275-350 g were fasted for 24 hours and were anesthetized with ketamine hydrochloride (88 mg/kg) intramuscularly immediately prior to dosing. A dosing group of five rats was administered one of the dosing solutions. […] Solution was administered by pressing the syringe plunger. […] The dosing catheter was inserted into the colon through the anus until the tube was no longer visible. The dosing solution was injected slowly into the colon.
Citrated blood samples were collected by cardiac puncture following the administration of ketamine (88 mg/kg), typically at time—0.25, 0.5, 1.0 and 1.5 hours. Heparin activity was determined by utilizing the activated partial thromboplastin time (APTT) according to the method of Henry, J. B., Clinical Diagnosis and Management by Laboratory Methods, Philadelphia, Pa., W.B. Saunders (1979). Previous studied indicated baseline values of about 20 sec. Results from the five rats in each group were averaged for each time point. The maximum is reported below in Table 6.

[3] = Human recombinant insulin oral/intracolonic delivery in rats, serum insulin Cmax; type: in vivo, Sprague-Dawley rats
Protocol: as §1, §2
During blood sampling, rats were exposed briefly (˜10 sec) to carbon dioxide until prostrate, immediately prior to each sampling time point. For blood sampling, a 77-mm capillary tube was inserted into the retroorbital sinus. Typically, blood samples were collected prior to dosing (time 0) and at 15, 30, 45, and 60 minutes after dosing. Samples were collected into CAPIJECT® tubes (Terumo Corporation, Tokyo, Japan) containing a clot activator (red top, serum separator tubes). Samples were allowed to clot for ˜20 min at 4° C. After clotting, samples were centrifuged at 10,000 rpm for 4 minutes at 6° C. in order to separate the serum. Serum was collected into eppendorf tubes and frozen at −20° C. until assayed.

[4] = Intracolonic heparin delivery in rats, antifactor Xa; type: in vivo, Sprague-Dawley rats; conditions: IC, volume 1 ml/kg, heparin dose 25 mg/kg
Protocol: as §3, §4

[5] = Human zinc insulin oral delivery in rats, blood glucose % change; type: in vivo, Sprague-Dawley rats; conditions: delivery agent compound dose 200 mg/kg, human zinc insulin dose 0.5 mg/kg
[6] = PYY[3-36] liquid oral delivery in rats, serum PYY by radioimmunoassay; design: species or system Sprague-Dawley rats; conditions: rat, in vivo
Protocol: Oral gavage (PO) dosing solutions of delivery agent compound and Peptide YY residues 3-36 (PYY[3-36]) (available from Bachem California Inc. of Torrance, Calif.) in deionized water were prepared as follows.
PYY [3-36] stock solution (80 mg/ml) was prepared with deionized water. Oral dosing compositions containing 200 mg/kg of delivery agent compound and 0.3 mg/kg of PYY in aqueous solution were prepared. A solution of the compound 23 is made with one equivalent to sodium hydroxide to convert the free acid delivery agent to its sodium salt.
Male Sprague-Dawley rats weighing between 240-320 g were fasted up to a maximum 24 hours before the experiments and administered ketamine (44 mg/kg) and thorazine (1.5 mg/kg) by intramuscular injection before the test article administration. Afterwards, the anesthetized animals were administered the test article by oral gavage.
Blood samples were collected serially from the tail artery, or by cardiac puncture, typically at time=0, 15, 30, 45, 60 and 90 minutes. Serum PYY concentrations were quantified using a PYY[3-36] radioimmunoassay (Catalog #RK-059-02 from Phoenix Pharmaceuticals, Inc., Belmont, Calif.). Results from the animals in each group were averaged for each time point. The maximum of these averages (i.e., the mean peak serum PYY[3-36] concentration ±standard deviation (SD)) is reported below in Table 2.

[7] = IC, volume 1 ml/kg, compound dose 50 mg/kg, heparin dose 25 mg/kg
[8] = oral (liquid dose), delivery agent compound dose 100 mg/kg, insulin dose 1 mg/kg

melting point: 62 to 63 °C
Compound: CC(C)N(C(=O)CCCCCC(=O)O)c1ccccc1 [Compound 23, 7-[isopropyl(phenyl)amino]-7-oxoheptanoic acid]

Compound: CC(C)N(C(=O)CCCCC(=O)O)c1ccccc1 [Compound 24]
Maximum % drop in glucose from control ± SD [1]: −14.73 ± 17.64%

Compound: CC(CC(=O)O)CC(=O)N(c1ccccc1)C(C)C (centres unmarked) [Compound 25]
Maximum % drop in glucose from control ± SD [1]: −14.81 ± 12.99%

Compound: CCN(C(=O)CC(C)CC(=O)O)c1ccccc1 (centres unmarked) [Compound 26]
Maximum % drop in glucose from control ± SD [1]: −25.93 ± 14.86%

Compound: CN(C(=O)CCCCCC(=O)O)c1ccccc1 [Compound 27]
Maximum % drop in glucose from control ± SD [1]: −25.40 ± 30.61%

Compound: CC(CC(=O)O)CC(=O)N(C)c1ccccc1 (centres unmarked) [Compound 28]
Maximum % drop in glucose from control ± SD [1]: −11.41 ± 18.92%

Compound: CN(C(=O)CCC(=O)O)c1ccc(Cl)cc1 [Compound 29]
Maximum % drop in glucose from control ± SD [1]: −29.25 ± 6.97%

melting point: 85 to 87 °C
Compound: O=C(O)CCCCCCCCC(=O)c1ccccc1O [Compound 114, 10-(2-Hydroxy-phenyl)-10-oxo-decanoic acid]
Mean Peak APTT (sec) ± SD [2, 7]: 42.90 ± 8.70 s

melting point: 141 to 142 °C
Compound: COc1ccc(C(=O)CCCC(=O)O)cc1 [Compound 116, 5-(4-Methoxy-phenyl)-5-oxo-pentanoic acid]

Cmax [3, 8]: Cmax = 81.16 ± 114.98 μIU/mL
Compound: CC(CC(=O)O)NC(=O)c1ccccc1O (centres unmarked) [Compound 140, 3-(2-Hydroxy-benzoylamino)-butyric acid]
Mean Peak APTT (sec) ± SD [2, 7]: 23.49 ± 6.12 s

Cmax [3, 8]: Cmax = 204.05 ± 60.88 μIU/mL
Compound: CC(CC(=O)O)NC(=O)c1cc(Br)cc(Br)c1O (centres unmarked) [Compound 141, 3-(3,5-Dibromo-2-hydroxy-benzoylamino)-butyric acid]
Mean Peak APTT (sec) ± SD [2, 7]: 52.40 ± 21.54 s

Cmax [3, 8]: Cmax = 118.16 ± 72.75 μIU/mL
Compound: CC(CC(=O)O)NC(=O)c1cc(Cl)cc(Cl)c1O (centres unmarked) [Compound 142, 3-(3,5-Dichloro-2-hydroxy-benzoylamino)-butyric acid]

Compound: CC(CC(=O)O)NC(=O)c1cc(I)cc(I)c1O (centres unmarked) [Compound 143, 3-(2-Hydroxy-3,5-diiodo-benzoylamino)-butyric acid]
Mean Peak APTT (sec) ± SD [2, 7]: 114.69 ± 121.62 s

Cmax ([3]; intracolonic, delivery agent compound dose 50 mg/kg, insulin dose 0.1 mg/kg): Cmax = 15.03 ± 7.80 μIU/mL
Cmax [3, 8]: Cmax = 3.92 ± 5.62 μIU/mL
Compound: CC(CC(=O)O)NC(=O)c1ccc(Cl)cc1O (centres unmarked) [Compound 145, 3-(4-Chloro-2-hydroxy-benzoylamino)-butyric acid]
Mean Peak APTT (sec) ± SD [2, 7]: 134.42 ± 99.03 s

Compound: CC(CC(=O)O)NC(=O)c1cc(C(C)C)cc(C(C)C)c1O (centres unmarked) [Compound 151, 3-(2-hydroxy-3,5-diisopropyl-benzoylamino)-butyric acid]
Mean Peak APTT (sec) ± SD ([2]; PO, volume 3 ml/kg, compound dose 300 mg/kg, heparin dose 100 mg/kg): 252.09 ± 107.13 s
antifactor Xa (mean peak ± SD) ([4]; compound dose 25 mg/kg): 3.39 ± 3.07
antifactor Xa (mean peak ± SD) ([4]; compound dose 50 mg/kg): 2.36 ± 1.27

Compound: O=C(O)Cc1ccccc1OCc1ccccc1 [Compound 152]
Glucose (% control) [5]: −29.3%

Compound: COc1ccc(C(=O)O)cc1OCc1ccccc1 [Compound 153]
Glucose (% control) [5]: −7.1%

Compound: Cc1cc(C(=O)O)cc(C)c1OCc1ccccc1 [Compound 154]
Glucose (% control) [5]: −7.9%

melting point: 110 to 112 °C
Compound: O=C(O)Cc1ccc(OCc2ccccc2)cc1 [Compound 158]

Cmax ([3]; oral (liquid dose), delivery agent compound dose 200 mg/kg, insulin dose 0.5 mg/kg): Cmax = 74 ± 7.5 μIU/mL
melting point: 67 to 70 °C
Compound: O=C(O)CCCCCOc1ccccc1C(=O)c1ccccc1O [Compound 160, 6-(2-(2-Hydroxybenzoyl)phenoxy)hexanoic acid]
Mean Peak APTT (sec) ± SD [2, 7]: 131 ± 154 s

Compound: COc1ccc(OCCCC(=O)O)c(C(=O)c2ccccc2O)c1 [Compound 165]
Maximum % drop in glucose from control ± SD [1]: −33.0%

Compound: O=C(O)CCCOc1ccccc1C(=O)c1ccccc1O [Compound 166, 4-(2-(2-Hydroxybenzoyl)phenoxy)butyric acid]
Maximum % drop in glucose from control ± SD [1]: −5.7%

Compound: Cc1ccc(OCCCC(=O)O)c(C(=O)c2ccccc2Cl)c1 [Compound 167, 4-(2-Chlorobenzoyl-4-methylphenoxy)butyric acid]
Maximum % drop in glucose from control ± SD [1]: −21.2% and −17.7% and −26.2% and −17.8% and −22.7%

melting point: 62 to 63 °C
Compound: O=C(O)CCCCCCCCCCOc1ccccc1OCc1ccccc1 [Compound 177, 11-(2-Benzyloxyphenoxy)undecanoic acid]

melting point: 127 to 128 °C
Compound: O=C(O)CCCCOc1ccc(OCc2ccccc2)cc1 [Compound 178, 5-(4-Benzyloxy-phenoxy)-pentanoic acid]

Compound: PYY[3-36]: Peptide YY residues 3-36, available from Bachem California Inc.; the active agent, dosed alone
PYY[3-36] detected in blood [6]: No significant PYY[3-36] was detected
